Laboratory results reported in ChEMBL document CHEMBL1201862, “PubChem BioAssay data set” (2004).
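The compound was tested at five concentrations on cells cultured in 96-well plates, with a 48-hour exposure period. GI50: concentration for 50% inhibition of growth.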 Active and inactive are the calls of the source. Rule as the data show it: active = GI50 up to about 1.1 µM and inactive = higher.

Assays:
Test in all cases: NCI anticancer screen, dose series, 48 h
[1] = system: A549
[2] = system: COLO 205
[3] = system: HCC 2998
[4] = system: HCT-15
[5] = system: K562
[6] = system: MOLT-4
[7] = system: NCI-H23
[8] = system: NCI-H460
[9] = system: NCI-H522
[10] = system: OVCAR-3
[11] = system: OVCAR-4
[12] = system: OVCAR-8
[13] = system: RPMI-8226
[14] = system: SF-268
[15] = system: UACC-62
[16] = system: SK-OV-3

SMILES	GI50 [1]	GI50 [2]	GI50 [3]	GI50 [4]	GI50 [5]	GI50 [6]	GI50 [7]	GI50 [8]	GI50 [9]	GI50 [10]	GI50 [11]	GI50 [12]	GI50 [13]	GI50 [14]	GI50 [15]	GI50 [16]
N#Cc1cccc(N2C(=O)c3c(c(-c4ccccc4)c(-c4ccc(Sc5ccc(-c6c(-c7ccccc7)c7c(c(-c8ccccc8)c6-c6ccccc6)C(=O)N(c6cccc(C#N)c6)C7=O)cc5)cc4)c(-c4ccccc4)c3-c3ccccc3)C2=O)c1	> 100 µM (inactive)	> 100 µM (inactive)	> 100 µM (inactive)	43.8 µM	> 100 µM (inactive)	49.2 µM (inactive)	> 100 µM (inactive)	> 100 µM (inactive)	> 100 µM (inactive)	> 100 µM (inactive)	> 100 µM (inactive)	45.9 µM (inactive)	> 100 µM (inactive)	55.7 µM (inactive)	61.7 µM (inactive)	
NC1=NC(Cn2nc(-c3ccccc3)c3ccccc3c2=O)=NNC(=O)N1	> 100 µM (inactive)	> 100 µM (inactive)	> 100 µM (inactive)	> 100 µM	> 100 µM (inactive)	> 100 µM (inactive)	> 100 µM (inactive)	> 100 µM (inactive)	> 100 µM (inactive)	> 100 µM (inactive)	> 100 µM (inactive)	> 100 µM (inactive)	> 100 µM (inactive)	> 100 µM (inactive)	> 100 µM (inactive)	> 100 µM (inactive)
Cc1ccc(N2C[N+](c3ccccc3)=NC(c3ccccc3)=N2)cc1	66.8 µM (inactive)	31.8 µM (inactive)	48.3 µM (inactive)	48.1 µM	23.2 µM (inactive)	21.3 µM (inactive)	38.9 µM (inactive)	54.1 µM (inactive)	> 10 µM (inactive)	29.4 µM (inactive)	40.1 µM (inactive)	48.1 µM (inactive)	33 µM (inactive)	> 100 µM (inactive)		
c1csc(C[N+]23CN4CN(CN(C4)C2)C3)c1	30 µM (inactive)	20 µM (inactive)	19.3 µM (inactive)	28.2 µM	20 µM (inactive)	21.6 µM (inactive)	> 100 µM (inactive)	23.2 µM (inactive)	> 100 µM (inactive)	> 100 µM (inactive)	24.3 µM (inactive)	28.2 µM (inactive)	18.9 µM (inactive)	> 100 µM (inactive)	22.6 µM (inactive)	
COCC12CC(CC1=O)C1C2ON2c3ccccc3C(=O)C12c1ccccc1 (stereo not given)	> 100 µM (inactive)	> 100 µM (inactive)	> 100 µM (inactive)	> 100 µM	63.7 µM (inactive)	52.5 µM (inactive)	> 100 µM (inactive)		> 100 µM (inactive)		4.9 µM (inactive)	> 100 µM (inactive)	40.7 µM (inactive)	> 100 µM (inactive)	77.4 µM (inactive)	> 100 µM (inactive)
Cc1c(Cl)cccc1NC(=O)C(=O)C1C(=O)NC(=O)NC1=O	> 100 µM (inactive)	> 100 µM (inactive)	> 100 µM (inactive)	> 100 µM	> 100 µM (inactive)	> 100 µM (inactive)	> 100 µM (inactive)	> 100 µM (inactive)	> 100 µM (inactive)	> 100 µM (inactive)	> 100 µM (inactive)	> 100 µM (inactive)	> 100 µM (inactive)	> 100 µM (inactive)	> 100 µM (inactive)	> 100 µM (inactive)
COC(=O)CCC(=O)N1CC1C (stereo not given)	> 100 µM (inactive)	> 100 µM (inactive)	> 100 µM (inactive)	> 100 µM	> 100 µM (inactive)	> 100 µM (inactive)	> 100 µM (inactive)	> 100 µM (inactive)	> 100 µM (inactive)	> 100 µM (inactive)	> 100 µM (inactive)	> 100 µM (inactive)	> 100 µM (inactive)	> 100 µM (inactive)	> 100 µM (inactive)	> 100 µM (inactive)
CCOc1ccc(NC(=O)C(=O)NO)cc1	> 100 µM (inactive)	> 100 µM (inactive)	> 100 µM (inactive)	> 100 µM	> 100 µM (inactive)	> 100 µM (inactive)	> 100 µM (inactive)	> 100 µM (inactive)	> 100 µM (inactive)	> 100 µM (inactive)	> 100 µM (inactive)	> 100 µM (inactive)	> 100 µM (inactive)	> 100 µM (inactive)	> 100 µM (inactive)	> 100 µM (inactive)
COCCNC(=O)C1C(=O)N(CCOC)C(=O)/C1=N/N (stereo not given)	> 100 µM (inactive)			> 100 µM	> 100 µM (inactive)	> 100 µM (inactive)	> 100 µM (inactive)		> 100 µM (inactive)	> 100 µM (inactive)			> 100 µM (inactive)	> 100 µM (inactive)	> 100 µM (inactive)	> 100 µM (inactive)
CSc1ccc(NC(=O)C2c3[nH]c4ccccc4c3C3CCC(C(C)(C)C)CC3C2C(=O)O)cc1 (stereo not given)	15.2 µM (inactive)	18 µM (inactive)	33 µM (inactive)	29.2 µM	32.3 µM (inactive)	15.1 µM (inactive)	20.1 µM (inactive)		15 µM (inactive)		18.4 µM (inactive)	14.8 µM (inactive)	20.3 µM (inactive)	18.9 µM (inactive)	17.4 µM (inactive)	16.5 µM (inactive)
O=C1C[C@@H]2CCCC[C@@H]2C12SCCS2	> 100 µM (inactive)	> 100 µM (inactive)	> 100 µM (inactive)	> 100 µM	> 100 µM (inactive)	69.8 µM (inactive)	95.1 µM (inactive)	> 100 µM (inactive)	69 µM (inactive)	> 100 µM (inactive)	> 100 µM (inactive)	> 100 µM (inactive)	> 100 µM (inactive)	> 100 µM (inactive)	77.3 µM (inactive)	> 100 µM (inactive)
NC(=O)n1ncc(Cl)c(Cl)c1=O	> 100 µM (inactive)	> 100 µM (inactive)		> 100 µM	> 100 µM (inactive)		> 100 µM (inactive)	> 100 µM (inactive)	> 100 µM (inactive)	> 100 µM (inactive)	> 100 µM (inactive)	> 100 µM (inactive)		> 100 µM (inactive)	> 100 µM (inactive)	> 100 µM (inactive)
CC(C)=CCC/C(=C/CC/C(C)=C/CCc1ccoc1)C(=O)O	> 100 µM (inactive)	> 100 µM (inactive)	> 100 µM (inactive)	> 100 µM	> 100 µM (inactive)	> 100 µM (inactive)	> 100 µM (inactive)	> 100 µM (inactive)	> 100 µM (inactive)	> 100 µM (inactive)	> 100 µM (inactive)	> 100 µM (inactive)		> 100 µM (inactive)	> 100 µM (inactive)	> 100 µM (inactive)
CN1CCC(CN2c3ccccc3Sc3ccccc32)CC1	15.1 µM (inactive)	14.1 µM (inactive)	12.9 µM (inactive)	18.5 µM	13.5 µM (inactive)	15.5 µM (inactive)	16.4 µM (inactive)	14.7 µM (inactive)	14.9 µM (inactive)	15.3 µM (inactive)	16.3 µM (inactive)	17.5 µM (inactive)	12.7 µM (inactive)	15.4 µM (inactive)	14.8 µM (inactive)	16.5 µM (inactive)
Cc1nc(Nc2ccc([N+](=O)[O-])cc2)sc1C(=O)/C=C/c1ccc(N(C)C)cc1	40.7 µM (inactive)	> 100 µM (inactive)	78.3 µM (inactive)	44.6 µM	37.8 µM (inactive)	35.9 µM (inactive)	> 100 µM (inactive)	65.2 µM (inactive)	19.4 µM (inactive)	> 100 µM (inactive)		73.3 µM (inactive)	54.1 µM (inactive)	> 100 µM (inactive)	> 100 µM (inactive)	> 100 µM (inactive)
CCSc1c2ccccc2c(-c2nc(F)nc(F)n2)n1CCc1ccccc1	> 100 µM (inactive)	> 100 µM (inactive)	> 100 µM (inactive)	> 100 µM	> 100 µM (inactive)	56.4 µM (inactive)	> 100 µM (inactive)	> 100 µM (inactive)	> 100 µM (inactive)	> 100 µM (inactive)	> 100 µM (inactive)		> 100 µM (inactive)	> 100 µM (inactive)		
O=c1[nH]c(=O)n(C2OC(COP(=O)(O)OP(=O)(O)O)C(O)C2O)cc1F (stereo not given)	0.119 µM (active)	1.57 µM (inactive)	0.538 µM (active)	0.446 µM	0.184 µM (active)	0.877 µM (active)	2.08 µM (inactive)	0.0453 µM (active)	2.48 µM (inactive)	6.34 µM (inactive)	1.23 µM (inactive)	2.11 µM (inactive)	0.436 µM (active)	0.298 µM (active)	2.7 µM (inactive)	3.92 µM (inactive)
COC1C2C[C@@H](O)CCC2C(C(=O)OCCl)C[C@H]1O (stereo not given in full)	> 100 µM (inactive)	> 100 µM (inactive)	> 100 µM (inactive)	> 100 µM	> 100 µM (inactive)	> 100 µM (inactive)		> 100 µM (inactive)	> 100 µM (inactive)	> 100 µM (inactive)	> 100 µM (inactive)	> 100 µM (inactive)	> 100 µM (inactive)	> 100 µM (inactive)	> 100 µM (inactive)	> 100 µM (inactive)
CCOC(=O)N1CCC(=O)C[C@@H]1C/C=C/P1(=O)O[C@H](c2ccccc2)C(C)N1C(C)C (stereo not given in full)	> 100 µM (inactive)		> 100 µM (inactive)	> 100 µM	> 100 µM (inactive)	> 100 µM (inactive)	> 100 µM (inactive)		> 100 µM (inactive)	> 100 µM (inactive)	> 100 µM (inactive)	> 100 µM (inactive)	> 100 µM (inactive)	> 100 µM (inactive)	> 100 µM (inactive)	> 100 µM (inactive)
